Among the test systems are LOX IMVI; UACC-62; NCI-H460; TK-10; Malme-3M; HCT-15; KM12; RXF 393; UO-31; MCF7; ACHN; K562; SR; SK-MEL-2; SNB-19; 786-0; OVCAR-3; A498; MDA-MB-231; HCT-116.
What all share (test): growth of human tumour cells (NCI), 48 h

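Five concentrations, 48 hours, 96-well plates. At the GI50, growth is halved.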 Activity calls are given as the source filed them. Rule as the data show it: active = GI50 up to about 1.1 µM and inactive = higher. Bounds are passed on as bounds.

As to `CC(=O)OC1CCC2(C)C(CCC3C2CC(=O)C2(C)C3CC(N3CC3)C2C(C)=O)C1` (stereo not given), the GI50 with LOX IMVI was 5.33 µM (inactive); in the test on UACC-62, 16.2 µM (inactive); with NCI-H460, 12.4 µM (inactive); with TK-10, 19.6 µM (inactive); with Malme-3M, 18.7 µM (inactive); in the test on HCT-15, 18.9 µM. The GI50 in the test with KM12 was 17.1 µM (inactive); in the test with RXF 393, 16.5 µM (inactive); in the test with UO-31 it was 18 µM (inactive); in the test on MCF7, 15.4 µM (inactive); in the test with ACHN, 13.8 µM (inactive); in the test with K562, 15.2 µM (inactive). For the same molecule, the GI50 with SR is 1.78 µM (inactive); in the test with SK-MEL-2 it was 17.5 µM (inactive); with SNB-19 it was 20.9 µM (inactive); with 786-0, 18.6 µM (inactive); with OVCAR-3, 26.2 µM (inactive); in the test on A498, 19.6 µM (inactive). Moreover, the GI50 in the test on MDA-MB-231 is 16.7 µM (inactive); in the test with HCT-116 it was 20.7 µM (inactive).
Regarding `CC1(C)CCC2=C(O1)/C(=N\Nc1ccc(F)cc1)c1ccccc1C2=O`, the GI50 in the test on LOX IMVI is 11.5 µM (inactive); in the test on UACC-62, 14.7 µM (inactive); in the test on NCI-H460 it was 23.9 µM (inactive); in the test with TK-10 it was 38.9 µM (inactive); in the test on Malme-3M, 30.6 µM (inactive); with HCT-15, 43.6 µM. The GI50 is 31.3 µM (inactive) with KM12; 35.2 µM (inactive) in the test with RXF 393; 38.2 µM (inactive) in the test with UO-31; 27.3 µM (inactive) with MCF7; 38.5 µM (inactive) in the test with ACHN; 49.5 µM (inactive) with K562. For the same molecule, the GI50 in the test on SR is 21.9 µM (inactive); in the test on SK-MEL-2, 32.3 µM (inactive); in the test on SNB-19, 35.6 µM (inactive); with 786-0 it was 32.4 µM (inactive); in the test on OVCAR-3 it was 21 µM (inactive); in the test with A498, 30.3 µM (inactive). Further, the GI50 is 46.7 µM (inactive) with MDA-MB-231 and 31.3 µM (inactive) with HCT-116.
On to `COc1cccc(/C=C2\CCC(CN(C)C)C2=O)c1` (stereo not given), for which the GI50 was 1.73 µM (inactive) in the test on LOX IMVI; 8.24 µM (inactive) with UACC-62; 16.2 µM (inactive) in the test with NCI-H460; 10.2 µM (inactive) with TK-10; 5.81 µM (inactive) with Malme-3M; 2.58 µM in the test on HCT-15. Also, the GI50 in the test on KM12 was 4.11 µM (inactive); in the test with RXF 393, 6.07 µM (inactive); in the test on UO-31, 9.51 µM (inactive); with MCF7 it was 2.25 µM (inactive); in the test on ACHN, 11.8 µM (inactive); in the test on K562, 1.1 µM (active). Moreover, the GI50 in the test with SR was 1.69 µM (inactive); with SK-MEL-2, 11.8 µM (inactive); with SNB-19, 13.5 µM (inactive); with 786-0, 3.5 µM (inactive); in the test with OVCAR-3, 5.04 µM (inactive); in the test with A498 it was 16.3 µM (inactive). For the same molecule, the results for the GI50 in the test with MDA-MB-231 and with HCT-116 were 4.66 µM (inactive) and 3.07 µM (inactive), respectively.
For `Nc1nc(Cl)c(N)c(NCC2(CO)CC2)n1`, the GI50 with LOX IMVI was > 100 µM (inactive); in the test on UACC-62, > 100 µM (inactive); in the test with NCI-H460, > 100 µM (inactive); in the test with TK-10, > 100 µM (inactive); with Malme-3M, > 100 µM (inactive); with HCT-15 it was greater than 100 µM. Also, the GI50 in the test with KM12, in the test on RXF 393, in the test on UO-31, in the test on MCF7, in the test on ACHN and in the test on K562 was > 100 µM (inactive) throughout. The GI50 in the test with SR, in the test with SK-MEL-2, in the test with SNB-19, with 786-0, with OVCAR-3 and in the test on A498 was > 100 µM (inactive) in each case. Also, the GI50 with MDA-MB-231 and with HCT-116 was > 100 µM (inactive) in each case.
For `Nc1cccc(/C=C/C(=O)N2CCN(CCOC(c3ccccc3)c3ccccc3)CC2)c1`, the GI50 was 17.9 µM (inactive) with LOX IMVI; 16.1 µM (inactive) with UACC-62; 16.9 µM (inactive) with NCI-H460; 15 µM (inactive) in the test with TK-10; 16.7 µM (inactive) in the test with Malme-3M; 16.3 µM in the test with HCT-15. Also, the GI50 in the test with KM12 was 17 µM (inactive); in the test with RXF 393 it was 15.3 µM (inactive); with UO-31, 16.9 µM (inactive); with MCF7, 16.8 µM (inactive); with ACHN, 16.1 µM (inactive); in the test on K562 it was 9.98 µM (inactive). Moreover, the GI50 is 14.4 µM (inactive) in the test with SR; 16.2 µM (inactive) in the test with SK-MEL-2; 17 µM (inactive) in the test with SNB-19; 16.7 µM (inactive) in the test on 786-0; 16.6 µM (inactive) in the test on OVCAR-3; 17.5 µM (inactive) in the test on A498. Besides, the GI50 in the test with MDA-MB-231 was 15.7 µM (inactive); with HCT-116, 15.5 µM (inactive).
Regarding `COc1ccccc1/C=C1\CCC(Cc2ccccc2)(CN(C)C)C1=O` (stereo not given), the GI50 in the test with LOX IMVI is 1.19 µM (inactive); in the test on UACC-62 it was 1.28 µM (inactive); in the test on NCI-H460 it was 0.698 µM (active); in the test on TK-10, 5.96 µM (inactive); in the test with Malme-3M it was 14.1 µM (inactive); in the test with HCT-15 it was 0.29 µM. In addition, the GI50 with KM12 was 0.319 µM (active); in the test on RXF 393, 7.93 µM (inactive); in the test on UO-31, 7.59 µM (inactive); in the test on MCF7 it was 0.292 µM (active); with ACHN, 12.6 µM (inactive); in the test with K562, 0.0851 µM (active). Besides, the GI50 with SR is 0.0948 µM (active); in the test with SK-MEL-2, 6.53 µM (inactive); in the test on SNB-19, 1.57 µM (inactive); in the test with 786-0, 1.43 µM (inactive); with OVCAR-3 it was 0.942 µM (active); in the test on A498 it was 6.93 µM (inactive). Further, the GI50 was 4.59 µM (inactive) in the test on MDA-MB-231 and 0.406 µM (active) in the test with HCT-116.
For `CCNc1nnc(-c2ccccc2Nc2ccccc2-c2nnc(NCC)s2)s1`, the GI50 in the test with LOX IMVI was 8.05 µM (inactive); in the test on UACC-62 it was 11.5 µM (inactive); with NCI-H460, 5.66 µM (inactive); in the test with TK-10 it was 11.4 µM (inactive); in the test with Malme-3M, 19.2 µM (inactive); in the test on HCT-15, 4.37 µM. Besides, the GI50 is 9.46 µM (inactive) in the test on KM12; 21.6 µM (inactive) in the test on RXF 393; 4.71 µM (inactive) in the test on UO-31; 2.28 µM (inactive) with MCF7; 7.35 µM (inactive) in the test with ACHN; 37.2 µM (inactive) in the test with K562. Also, the GI50 in the test with SR was 47.8 µM (inactive); in the test with SK-MEL-2, 9.77 µM (inactive); with SNB-19, 27.4 µM (inactive); in the test on 786-0 it was 11 µM (inactive); in the test on OVCAR-3 it was 18.3 µM (inactive); in the test on A498, 13.5 µM (inactive). In addition, the GI50 in the test with MDA-MB-231 is 8.02 µM (inactive); with HCT-116, 9.89 µM (inactive).
On to `COC1C(CO)OC(n2c3c(Cl)cccc3c3c4c(c5c6cccc(Cl)c6[nH]c5c32)C(=O)NC4=O)C(O)C1O` (stereo not given), for which the GI50 with LOX IMVI was 0.116 µM (active); in the test on UACC-62, 0.113 µM (active); in the test with NCI-H460, 0.177 µM (active); with TK-10 it was 0.47 µM (active); in the test on Malme-3M, 0.223 µM (active); in the test with HCT-15, 0.401 µM. Further, the GI50 was 0.614 µM (active) in the test on KM12; 0.225 µM (active) with RXF 393; 0.296 µM (active) in the test on UO-31; 0.1 µM (active) in the test on MCF7; 0.113 µM (active) with ACHN; 0.142 µM (active) in the test on K562. For the same molecule, the GI50 with SR is 0.0282 µM (active); in the test with SK-MEL-2, 0.386 µM (active); with SNB-19, 0.213 µM (active); with 786-0 it was 0.133 µM (active); in the test on OVCAR-3 it was 0.292 µM (active); in the test with A498, 0.158 µM (active). Besides, the GI50 is 0.276 µM (active) in the test with MDA-MB-231 and 0.097 µM (active) with HCT-116.
In the case of `CC(C)NC(=O)OCc1c(COC(=O)NC(C)C)c(-c2ccc(Cl)c(Cl)c2)n2c1CCC2`, the GI50 in the test with LOX IMVI was 46.8 µM (inactive); in the test on UACC-62, 39.8 µM (inactive); with NCI-H460, 36.6 µM (inactive); with TK-10 it was 41.7 µM (inactive); in the test with Malme-3M, 47.1 µM (inactive); with HCT-15 it was 52.7 µM. Further, the GI50 in the test with KM12 is 62.5 µM (inactive); in the test with RXF 393 it was 31.3 µM (inactive); in the test on UO-31, 45 µM (inactive); in the test with MCF7, > 100 µM (inactive); in the test with ACHN it was 18.7 µM (inactive); with K562 it was 46.1 µM (inactive). For the same molecule, the GI50 with SR was 6.37 µM (inactive); in the test with SK-MEL-2 it was 44.2 µM (inactive); in the test on SNB-19, 56.5 µM (inactive); in the test on 786-0, 20.7 µM (inactive); in the test with OVCAR-3, 54 µM (inactive); in the test on A498, 34 µM (inactive). The GI50 in the test on MDA-MB-231 was 84.7 µM (inactive); in the test on HCT-116, 51.8 µM (inactive).
For the molecule `Cc1occc1C(=S)Nc1ccc(Cl)c(/C=N/OC(C)(C)C)c1`, the GI50 with LOX IMVI is 13.1 µM (inactive); with UACC-62, 14.3 µM (inactive); in the test with NCI-H460, 14.7 µM (inactive); in the test with TK-10, 21.9 µM (inactive); in the test with Malme-3M, 21.8 µM (inactive); in the test on HCT-15, 15 µM. Also, the GI50 was 15.3 µM (inactive) in the test with KM12; 13.4 µM (inactive) in the test with RXF 393; 13.9 µM (inactive) in the test with UO-31; 18.1 µM (inactive) in the test on MCF7; 14.6 µM (inactive) in the test with ACHN; 31.6 µM (inactive) in the test with K562. The GI50 with SR was 12.9 µM (inactive); in the test with SK-MEL-2 it was 17.9 µM (inactive); in the test on SNB-19, 18.7 µM (inactive); in the test on 786-0, 18.7 µM (inactive); in the test on OVCAR-3, 15.6 µM (inactive); with A498, 20.4 µM (inactive). The GI50 with MDA-MB-231 is 19.7 µM (inactive); in the test on HCT-116 it was 13.5 µM (inactive).
